The nature of test [1]: Sensory analysis of Maillard reaction samples: odor/smell, color, taste (Examples 55-62). It counts as in vivo, human. Particulars: Example 56, negative controls (no carbohydrate source); 10 ml glycerin/water=9:1, 100° C., 40 minutes. The procedure:
All reactions were performed in 10 ml glycerin/water=9:1. The reaction partners were dissolved in water and then warmed glycerin (60° C.) was added. The reactions were performed at 100° C. for 40 minutes in a drying oven (sealed vials were positioned in pre-heated sand to increase heat transfer).
All samples were assessed at 22° C. after the Maillard reaction was stopped by placing the sealed vials in an ice bath. After 20 minutes in the ice bath the sealed vials were put in a water bath set to 22° C.
The odor/smell was assessed independently by 3 persons; the final description was agreed after discussion. […] The taste was assessed independently by 3 persons either in the original samples or after appropriate dilution to achieve relevant concentrations of sugars and steviol-glycosides (i.e. 5-9% SE); the final description was agreed after discussion.

Experiment in test [2]: as above
It counts as in vivo, human.

Test [3] is described as follows: Sensory evaluation of the samples prepared in Example 50 (Example 52). It counts as in vivo, human. More on the design: key to Intensity of Smell: “+” for slight; “++” for moderate; “+++” for very strong.
Method: The reaction partner (amino acid, carbohydrate source) were dissolved/suspended in the reaction solvent and transferred into a glass beaker filled with sand pre-heated for at least 30 minutes at the reaction temperature in a drying oven. After the planned reaction time, the vials were transferred into ice water. After cooling to room temperature, sensory analysis and analytical characterization was performed.
For evaluation of the taste profile, the samples were tested by a panel of four people. 1 trained taster tasted independently the samples first. The taster was asked to describe the taste profile and score 0-5 according to the increasing sugar likeness, bitterness, aftertaste and lingering taste profiles. The first taster was allowed to re-taste, and then make notes for the sensory attributes perceived. Afterwards, another 3 tasters tasted and the attributes were noted and discussed openly to find a suitable description. In case that more than 1 taster disagreed with the results, the tasting was repeated. In some sensory test results (above), the taste rating was expressed by “+”, which means the intensity of the factors is shown by three levels. “+” for slight, “++” for moderate and “+++” for very strong.
The conditions of test [4]: the sweeteness depends on the tested concentration compared with sucrose; cited from earlier work.
The nature of test [5]: DPPH radical-scavenging activity (Example 65). It counts as physicochemical. To be noted: iron-III reduction and DPPH radical scavenging, samples kept at 100° C. 0, 2.5 or 5.0 hours. The method, then: 1 mg 1,1-Diphenyl-2-picrylhydrazyl radical (DPPH)/ml ethanol, dilution to assay concentration were prepared in ethanol (40 μg/mL); Calibration samples were prepared with Ascorbic acid in a concentration of 0-10 μg/mL; as a negative control sample, water was used.
Samples in aqueous solution were used as such or diluted with water.
A 0.1 ml sample (or calibration standard) was mixed with 3.9 ml solution of DPPH (100 μMolar) and reacted while protected from light at room temperature for 30 min. Absorbance was determined at 517 nm against ethanol.
10 mM of amino acid and/or 10 mM sugar were dissolved in 10 ml 0.1 mM KH2PO4-buffer, pH=7.8.
The samples were kept at 100° C. in sealed glass vials (Pyrex 15 ml with screw caps) for 0 (before reaction), 2.5 or 5.0 hours. Thereafter the samples were transferred to an ice water bath and cooled down to room temperature. These samples were diluted 1:10 and used for the test assay for anti-oxidant potential.
(In general: Loss of DPPH colour is used to gauge radical scavenging.)

[6] abbreviates: Example 57, after reaction, 10 ml KH2PO4, pH 7.8, 2.5 h, 120° C.
Where [7] appears, read: Table 52.1, 1 ml water + 9 ml Glycerin, 1 h, 100° C. (Table 50.1).
Where [8] appears, read: Table 52.5, 1 ml water + 9 ml Glycerin, 2.0 h, 120° C. (Table 50.5).
[9] abbreviates: Table 52.6, Glycerin, 10 ml, 100° C., 40 min (Table 50.6).
[10] abbreviates: Table 52.7, Glycerin, 10 ml, 1 h, 120° C. (Table 50.7).
The mark [11] stands for this setting: Table 52.2, 1 ml water + 9 ml Glycerin, 0.67 h, 100° C. (Table 50.2).
Setting [12] is: Example 57, before reaction, 10 ml KH2PO4, pH 7.8.
The mark [13] stands for this setting: Table 52.3, 1 ml water + 9 ml Glycerin, 0.67 h, 100° C. (Table 50.3).

On to `CC[C@H](C)[C@H](N)C(=O)O` [13.11 mg Ile], for which, in test [1], the Smell entry was “Coffee” and the Taste result is reported as “Slightly sweet”.
Regarding `O=C1O[C@@H]2[C@@H](O)[C@H](O)O[C@@H]2C1O` (stereo partly shown) [Glucuronolactone], in test [2] (setting [6]), the Smell result is recorded as “Burnt sugar” and the Taste result is on record as “Bitter”.
Consider `N[C@@H](CCC(=O)O)C(=O)O` [167 mMol Glu], for which, in test [3] (setting [7]), the Smell entry is reported as “caramel” and the Taste entry is given as “Sweet”.
As for `O=C[C@H](O)[C@H]1OC(=O)[C@@H](O)[C@H]1O` [0.1 mMol GlucLac], in test [3] (setting [8]), the “Intensity of Smell” value is “+++”, the Smell entry is given as “Burnt sugar” and the Taste result was “Bitter”.
Turning to `OC[C@H]1OC(O)[C@H](O)[C@@H](O)[C@@H]1O` (stereo partly shown) [10 mMol Glu], the Smell entry in test [3] (setting [9]) and in test [3] (setting [10]) was “Slightly Caramel” in each case.
Turning to `N[C@@H](Cc1ccc(O)cc1)C(=O)O` [18.1 mg Tyr], in test [1], the Smell result is listed as “neutral” and the Taste result is on record as “Slightly sweet”.
On to `OC[C@H]1O[C@H](O[C@]2(CCl)O[C@H](CCl)[C@@H](O)[C@@H]2O)[C@H](O)[C@@H](O)[C@H]1Cl` [sucralose], for which the “times sweeter than sucrose” value in test [4] was “about 600 times”.
On to `N[C@@H](Cc1ccccc1)C(=O)O` [0.1 mMol Phe], for which the Taste result in test [3] (setting [11]) is reported as “sweet”. In addition, in test [3] (setting [8]), the “Intensity of Smell” value is given as “+”; the Smell entry is “Caramel, burnt”; the Taste entry is listed as “sweet”.
Turning to `N[C@@H](Cc1ccccc1)C(=O)O` [Phe 60 mMol], in test [3] (setting [7]), the Smell entry is reported as “flowery/bloomy-caramel” and the Taste entry is given as “Sweet”.
As for `O=C[C@H](O)[C@@H](O)[C@H](O)[C@H](O)C(=O)O` [Glucuronic Acid], in test [2] (setting [6]), the Smell result is given as “burnt bread” and the Taste entry is on record as “Bitter”.
For `C=C1C[C@@]23CC[C@H]4[C@@](C)(CCC[C@@]4(C)C(=O)O[C@@H]4O[C@H](CO)[C@@H](O)[C@H](O)[C@H]4O)[C@@H]2CC[C@]1(O[C@@H]1O[C@H](CO)[C@@H](O)[C@H](O[C@@H]2O[C@H](CO)[C@@H](O)[C@H](O)[C@H]2O)[C@H]1O[C@@H]1O[C@H](CO)[C@@H](O)[C@H](O)[C@H]1O)C3` [0.05 mMol Reb-A], in test [3] (setting [11]), the Smell result is given as “neutral/unpleasant” and the Taste entry is “sweet”.
Regarding `O=S(=O)([O-])NC1CCCCC1.[Na+]` [sodium cyclamate], in test [4], the “times sweeter than sucrose” value is on record as “about 30 times”.
As to `CSCC[C@H](N)C(=O)O` [14.9 mg Met], in test [1], the Smell result is “Sulfuric” and the Taste result is listed as “Slightly sweet”.
As for `N[C@@H](Cc1c[nH]c2ccccc12)C(=O)O` [20.42 mg Try], in test [1], the Smell entry is on record as “Unpleasant (fecal)” and the Taste result is listed as “Slightly sweet”.
As to `C[C@H](N)C(=O)O` [8.91 mg Ala], in test [1], the Smell result is “Neutral, slightly Agar” and the Taste result is “Slightly sweet”.
As to `C[C@@H](O)[C@H](N)C(=O)O` [11.91 mg Thr], in test [1], the Smell entry was “Vanilla, butter” and the Taste result is recorded as “Slightly sweet”.
Consider `NCCCC[C@H](N)C(=O)O` [14.7 mg Lys], for which, in test [1], the Smell entry is recorded as “Popcorn” and the Taste entry is given as “Slightly sweet”.
As to `C[C@H](N)C(=O)O` [0.1 mMol Ala], in test [3] (setting [11]), the Smell result is on record as “Agar” and the Taste result was “sweet”.
`N[C@@H](CO)C(=O)O` [10.5 mg Ser]: in test [1], the Smell result is reported as “Lotus flower” and the Taste entry is “Slightly sweet”.
In the case of `OC[C@H]1OC(O)[C@H](O)[C@@H](O)[C@@H]1O` (stereo partly shown) [9 mg Glucose], in test [2] (setting [12]), the Smell result is listed as “neutral” and the Taste result was “Sweet”.
For the molecule `N[C@@H](Cc1ccccc1)C(=O)O` [3.3 mMol Phe], the Smell result in test [3] (Table 52.6, Glycerin, 10 ml, 100° C., 5 min (Table 50.6)) is “Slightly bloomy”; in test [3] (Table 52.6, Glycerin, 10 ml, 100° C., 10 min (Table 50.6)) it was “flowery/bloomy”; in test [3] (Table 52.6, Glycerin, 10 ml, 100° C., 20 min (Table 50.6)) it was “flowery/bloomy”; in test [3] (setting [9]) it was “flowery/bloomy”; in test [3] (setting [10]), “flowery/bloomy”.
On to `N[C@H](Cc1ccccc1)C(=O)O` [Phe], for which, in test [2] (setting [6]), the Smell entry was “Caramel, burnt” and the Taste entry was “sweet”.
Take `C=C1C[C@@]23CC[C@H]4[C@@](C)(CCC[C@@]4(C)C(=O)O[C@@H]4O[C@H](CO)[C@@H](O)[C@H](O)[C@H]4O)[C@@H]2CC[C@]1(O[C@@H]1O[C@H](CO)[C@@H](O)[C@H](O[C@@H]2O[C@H](CO)[C@@H](O)[C@H](O)[C@H]2O)[C@H]1O[C@@H]1O[C@H](CO)[C@@H](O)[C@H](O)[C@H]1O)C3` [Reb-A, Rebaudioside A]: in test [5], the anti-oxidant properties entry is “substantial anti-oxidant properties”.
For `N[C@@H](Cc1ccccc1)C(=O)O` [16.5 mg Phe], the Smell entry is listed as “Bloomy, caramel” in test [1]; “neutral” in test [2] (setting [12]); “Neutral” in test [2] (Example 58, before reaction, 10 ml KH2PO4, pH 7.8). In addition, the Taste result in test [1] is given as “Slightly sweet”; in test [2] (setting [12]), “No taste”; in test [2] (Example 58, before reaction, after dilution 1:20), “No taste”.
Consider Thaumatin, for which the “times sweeter than sucrose” value in test [4] was “about 2000 times”.
On to `N[C@@H](CS)C(=O)O` [12.1 mg Cys], for which, in test [1], the Smell entry is “Unpleasant (sulfur)” and the Taste result is on record as “Slightly sweet”.
For the molecule `O=C(O)[C@@H]1CCCN1` [11.5 mg Pro], the Taste result in test [1] is on record as “Slightly sweet”.
Regarding `NCCCC[C@H](N)C(=O)O` [0.1 mMol Lys], in test [3] (setting [13]), the Smell result is recorded as “Popcorn” and the Taste result is “Sweet”.

Values taken from patent publication US11147295B2, “Sweetener and flavor compositions, methods of making and methods of use thereof” (EPC Natural Products Co., Ltd., priority 2018, dated 2021).
